A word on the IC50: it is the midpoint of a concentration-inhibition curve. The inhibition is the percentage by which the read-out fell short of the control.

One test deals with L6 cells. Description: Cytotoxic activity against rat skeletal myoblast L6 cells (Alamar Blue). The class given is cell-based. The note with it: 120 h, cytotoxicity, 5 days. The method, then: The cytotoxicity against mammalian cells was assessed using microtitre plates. Briefly, L6 cells (a rat skeletal muscle line) were seeded at 1 × 10^4 mL^−1 in 200 μL of RPMI-1640 growth medium (with 10% fetal calf serum) containing 7 different compound concentrations in a range previously established to encompass both the IC50 and IC90 values. The plates were incubated for 5 days at 37 °C and 20 μL Alamar Blue (Biosource Ltd, Wilton, North Yorkshire England.) was then added to each well. After an additional 8 hours incubation, the fluorescence was determined using a Gemini fluorescent plate reader (Molecular Devices). Inhibition of growth was calculated by comparison with control values and IC50 and IC90 values were determined in triplicate using linear regression analysis.

For test [1], the system named is L. infantum intracellular amastigotes. Nature of the test: Activity against intracellular L. infantum amastigotes in THP-1 derived macrophages (luciferase). The class given is cell-based, Leishmania infantum (MHOM/MA/67/ITMAP-263). The settings on record: Leishmania infantum; for inhibition at 10 µM: THP-1, 72 h, read-out: L. infantum (intracellular amastigotes) % of growth inhibition at 10 μM ± ST DEV. On the procedure:
Leishmania infantum Luciferase-expressing L. infantum (strain MHOM/MA/67/ITMAP-263) axenic amastigotes were cultured in MAA/20 medium at 37 °C with 5% CO2, as described by Sereno et al. 1998.[26] The parasites were maintained in 5 mL T25 ventilated flasks and subcultured every seven days at a concentration of 1 × 10^6 cells per mL.
The activity against intracellular amastigotes of L. infantum was evaluated using a modified method described by Santarem, Tavares, and Cordeiro-da-Silva (2019).[27] THP-1 cells were differentiated into macrophages using PMA, as previously outlined. The differentiated macrophages were then infected with L. infantum axenic amastigotes expressing episomal luciferase at a macrophage-to-amastigote ratio of 1 : 10 for four hours at 37 °C in a 5% CO2 atmosphere. After this incubation, non-internalized parasites were washed away, and various concentrations of test compounds were added in a final volume of 100 μL. A dose–response curve for miltefosine was included in all assays to serve as a quality control. Each experimental condition was tested in quadruplicate. After 72 hours of incubation, the medium was replaced with 100 μL of PBS, and 25 μL of Glo-lysis buffer from the Steady-Glo Luciferase Assay System (Promega, Madison, WI, USA) was added. The plates were then agitated at 100 rpm for 10 minutes at room temperature. Following this, 30 μL of the Steady-Glo reagent (Promega, Madison, WI, USA) was added, and the mixture was incubated for 15 minutes in the dark under the same conditions. A total of 140 μL from each well was transferred to white-bottom 96-well plates, and luminescence intensity was measured using a Synergy 2 Multi-Mode Reader (Biotek, Winooski, VT, USA). The antileishmanial effect was assessed by comparing the results with those from non-treated infected cells. The IC50 value were determined through non-linear regression analysis using GraphPad Prism version 8.1.1 for Windows (GraphPad Software, San Diego, CA, USA). Results represent the average of at least three independent experiments.

In the case of `O=C(Cc1ccc(C23CC4CC(CC(C4)C2)C3)cc1)NCCn1cnc([N+](=O)[O-])n1` [6b, 2-[4-(1-Adamantyl)phenyl]-N-[2-(3-nitro-1H-1,2,4-triazol-1-yl)ethyl]acetamide], the IC50 in the test with L6 cells is 30 ± 2 µM. Further, the inhibition at 10 µM in test [1] was 50.1 ± 23%.
In the same order, the values of `O=C(CCc1ccc(C23CC4CC(CC(C4)C2)C3)cc1)NCCn1cnc([N+](=O)[O-])n1` [6c, 3-[4-(1-Adamantyl)phenyl]-N-[2-(3-nitro-1H-1,2,4-triazol-1-yl)ethyl]propanamide] are 23 ± 2 µM and 47.6 ± 16.3%.
Regarding `O=C(Cc1ccc(C23CC4CC(CC(C4)C2)C3)cc1)NCCCn1cnc([N+](=O)[O-])n1` [6e, 2-[4-(1-Adamantyl)phenyl]-N-[3-(3-nitro-1H-1,2,4-triazol-1-yl)propyl]acetamide], the IC50 is 23 ± 3 µM in the test with L6 cells and 6.93 µM in test [1] (THP-1 derived macrophages, 72 h, 95% CI in brackets, read-out: L. infantum (intracellular amastigotes) IC50 (μM), 95% CI). For the same compound, the inhibition at 10 µM in test [1] came out at 59.5 ± 12%.

(Values after article PMC12679539, “Synthesis and evaluation of nitroheterocyclic aromatic adamantane amides with trypanocidal activity. Part II” (RSC Medicinal Chemistry, 2025).)
